From US20110028554A1, “PHARMACEUTICAL COMPOSITIONS COMPRISING DIIODOTHYRONINE AND THEIR THERAPEUTIC USE” (UNIVERSITE JOSEPH FOURIER, priority 2007, published 2011)

Legend:
[1] = tested on: nuclear receptors of the thyroid hormones, TRα-1 and TRβ-1; details: literature; cited from earlier work
[2] = Plasmatic concentrations of glucose, triglycerides, cholesterol, FFA and HDL on the day of sacrifice; assay type: in vivo, Wistar, Zucker and ZDF rats; details: non-diabetic Wistar rats, 3,3′-T2 treatment (dose not printed in FIG. 15A legend)
Source text: These measurements were done on venous blood of the rats the day of the sacrifice.
(§1) At the end of the experimental period, animals were sacrificed by decapitation, in order to avoid the well-known effects of general anesthetics on mitochondrial metabolism. Blood, samples were immediately collected and plasma was frozen for subsequent determination of serum metabolites and hormones. Liver, muscles and fat depots were quickly excised and weighed. Liver median lobe was rapidly freeze-clamped. Muscles (plantaris, soleus and gastrocnemius) were frozen in isopentane precooled in liquid nitrogen. Mesenteric fat consisted, of adipose tissue surrounding the gastro-intestinal tract from the gastro-oesophageal sphincter to the end of the rectum with special care taken in distinguishing and removing the pancreas. Retroperitoneal fat pad was taken as the distinct depot behind each kidney along the lumbar muscles. Epididymal fat consisted, of adipose tissue on top of the epididymis. For subcutaneous depot measurement, a rectangular piece of skin was taken on the right side of each animal from the median line of the abdomen between the spine and the right hip to the first rib. Interscapular brown adipose tissue was removed and dissected free from adjacent muscles and white adipose tissue. The heart ventricles, the right kidney and the spleen were also excised, weighed and frozen.
Glucose and 3-hydroxybutyrate (3-HB) were measured, enzymatically and non esterified fatty acid (NEFA) by colorimetric assay (Wako Chemicals).
Triglycerides and cholesterol were measured by classical routine automate apparatus.

muscle mitochondria = assay: Muscle mitochondrial oxygen consumption (JO2) of treated Wistar rats; assay type: in vivo; details: high dosage 25 μg/100 g BW
Protocol: (§2) All measurements were performed using mitochondria (0.2 mg mitochondrial protein/ml) incubated with various substrates: • GM: glutamate/malate (5 mM/2.5 mM) • SR: succinate/rotenone (5 mM/5 μM), • GMS: glutamate/malate/succinate (5 mM/2.5 mM/5 mM), • Palm: palmitoyl carnitine (55 μM), • Octa: octanoyl carnitine (100 μM), • TMPD/AsC: TMPD/ascorbate (0.5 mM/0.5 mM), and • TMPD/AsC/DNP: TMPD/ascorbate/DNP (0.5 mM/0.5 mM/75 μM).
JO2 was recorded in the presence of the substrate and following the addition of 1 mM ADP (state 3).
The oligomycin was added to the mitochondrial suspension to determine the non-phosphorylating respiratory rate (state 4).
(§3) The major part of the liver and the red part of each quadriceps were rinsed, and chopped into isolation medium (250 mM sucrose, 20 mM Tris-HCl and 1 mM EGTA-Tris, pH 7.4). Nuclei and cell debris were removed, by centrifugation at 800 g for 10 min. Mitochondria were then isolated from the supernatant by spinning twice at 8,000 g for 10 minutes. The mitochondrial pellet was resuspended in 0.5 ml of isolation buffer and kept on ice. Mitochondrial protein was measured by the bicinchoninic acid method (Pierce, Rockford, Ill.). The final mitochondrial suspensions were maintained on ice and were used for measurements of oxygen consumption rate and reactive oxygen species (ROS) production.
(§4) The rate of mitochondrial oxygen consumption (JO2) was measured at 30° C. in an incubation chamber with a Clark-type O2 electrode filled with 2 ml of incubation medium (125 mM KCl, 10 mM Pi-Tris, 20 mM Tris-HCl, 0.1 mM EGTA, pH 7.2). All measurements were performed using mitochondria (1.0 or 0.2 mg mitochondrial protein/ml for liver and skeletal muscle) incubated either with various substrates: glutamate/malate (5 mM/2.5 mM) and succinate (5 mM), alone or in combination, palmitoyl carnitine (55 μM) and octanoyl carnitine (100 μM). For each substrate, JO2 was recorded in the presence of the substrate alone (State 2) and following the addition of 1 mM ADP (state 3). Oligomycin (1.25 μg/mg protein) was added to the mitochondrial suspension to determine the non-phosphorylating respiratory rate (state 4). The incubation medium was constantly stirred with a built-in electromagnetic stirrer and bar flea. The efficiency of the mitochondrial oxidative phosphorylation was assessed by the state 3/state 4 ratio which measures the degree of control imposed on oxidation by phosphorylation (respiratory control ratio, RCR).

[3] = Growth rate (body weight) of Wistar rats with subcutaneous continuous-release pellet; assay type: in vivo; details: high dosage 25 μg/100 g BW
Protocol: (§5) Adult male rat bred in the animal room facilities of Laboratory of Fundamental and Applied. Bioenergetics (Wistar strain) or purchased from Charles-River Laboratories, Domaine des oncins, L'ARBRESLE France [(genetically obese normoglycemic (Zucker or Fa/Fa) or diabetic (ZDF)] were caged individually in stainless steel hanging cages and maintained in a 22° C., 50±10% relative humidity and 12 h:12 h light:dark environment. All animals were fed ad libitum with a standard rat chow (Safe A04, Villemoisson, France) and tap water. Body mass and food intake were recorded twice/thrice a week and fresh food was provided, at the same time to ensure minimal disturbance to the animals' food, behavior.
(§6) Eight-week old rats (300 g±10 g) were anesthetized by simultaneous intraperitoneal injection of diazepam 4 mg/kg and ketamine 100 mg/kg. In order to maintain body temperature during the surgery (10 min), animals were placed on a warm blanket. After interscapular shaving, a small incision of 0.5 cm of the skin allows the subcutaneous implantation of a small pellet (containing rT3 or 3′,3-T2) with a 10-gauge precision trochar. The pellets, manufactured by Innovative Research of America (Sarasota, Fla., USA) are constituted of a biodegradable matrix that effectively and continuously release the active product in the animal.
(§7) 3-5 diiodothyronine (3-5 T2) or 3-3′diiodothyronine (3-3′ T2) were used at different doses (5, 0.5, or 0.1 mg/pellet) were implanted in order to provide a continuous and constant drug delivery over 60 days (which represents 25 μg, 2.5 μg or 0.5 μg/day/100 g BW).

[4] = Body composition (adipose tissues, skeletal muscles, brown adipose tissue) of Wistar rats; assay type: in vivo; details: high dosage 25 μg/100 g BW
Source text: as §1

[5] = Food intake of Wistar rats; assay type: in vivo; details: high dosage 25 μg/100 g BW
Protocol: as §5, §6, §7

liver mitochondria = assay: Liver mitochondrial oxygen consumption (JO2) of treated Wistar rats; assay type: in vivo; details: high dosage 25 μg/100 g BW
Protocol: as §2, with “(1.0” for “(0.2”
JO2 was recorded in the presence of the substrate and following the addition of 1 mM ADP (adenosine diphosphate) (state 3).
The oligomycin was added to the mitochondrial suspension to determine the non-phosphorylating respiratory-rate (state 4).
as §3, §4

Row | Compound | Binding to the nuclear receptors [1] | Plasmatic glucose at the end of the treatment [2] | Muscle mitochondrial respiration, non-phosphorylating (state 4), vs placebo (muscle mitochondria) | Muscle mitochondrial respiration, phosphorylating (state 3), vs placebo (muscle mitochondria) | Growth rate (body weight gain) vs placebo [3] | Brown adipose tissue weight vs placebo [4] | Fat masses, all localizations (retroperitoneal, epididymal, mesenteric, subcutaneous) vs placebo [4] | Muscle mass / lean body mass vs placebo [4] | Food intake vs placebo [5] | Liver mitochondrial respiratory rate, non-phosphorylating (state 4, oligomycin), vs placebo (liver mitochondria) | Liver mitochondrial respiratory rate, phosphorylating condition (state 3), vs placebo (liver mitochondria; all substrates)
1 | N[C@@H](Cc1cc(I)c(Oc2ccc(O)c(I)c2)c(I)c1)C(=O)O [T3] | binds very efficiently |  |  |  |  |  |  |  |  |  | 
2 | N[C@@H](Cc1cc(I)c(Oc2cc(I)c(O)c(I)c2)c(I)c1)C(=O)O [T4, Thyroxine] | binds less efficiently |  |  |  |  |  |  |  |  |  | 
3 | N[C@@H](Cc1ccc(Oc2ccc(O)c(I)c2)c(I)c1)C(=O)O [3,3′-T2, 3′,3-diiodothyronine] |  | minor changes | failed to substantially affect | failed to substantially affect | did not show similar weight gain | significantly increased | significantly decreased | not affected | a biphasic effect was observed | substantially higher in the low 3,5-T2 group only | very significant increased respiratory rate
